Data: the supplement of paper PMC10307832

Legend:
Experiment in all cases: relative viability (nuclei count vs DMSO), 5 days (fraction); higher = more cells survive
EPLC-272H = tested on: EPLC-272H
Summary of the method: (§1)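 Five library-drug doses in √10 steps were combined with a fixed anchor-drug dose, or a single drug was given alone, by pin tool to lung cancer cell lines in 1536-well plates the day after seeding. Nuclei were stained and counted after 5 days. Relative viability is the nuclei count in treated wells over that in vehicle wells, taken as the median of duplicate plates.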

H3255 = tested on: H3255
Summary of the method: as §1

HARA = tested on: HARA
Summary of the method: as §1

LC-2-ad = tested on: LC-2-ad
Summary of the method: as §1

LOU-NH91 = tested on: LOU-NH91
Summary of the method: as §1

NCI-H1650 = tested on: NCI-H1650
Summary of the method: as §1

NCI-H1651 = tested on: NCI-H1651
Summary of the method: as §1

NCI-H1975 = tested on: NCI-H1975
Summary of the method: as §1

NCI-H2009 = tested on: NCI-H2009
Summary of the method: as §1

NCI-H2023 = tested on: NCI-H2023
Summary of the method: as §1

NCI-H2085 = tested on: NCI-H2085
Summary of the method: as §1

NCI-H2087 = tested on: NCI-H2087
Summary of the method: as §1

NCI-H2170 = tested on: NCI-H2170
Summary of the method: as §1

NCI-H2228 = tested on: NCI-H2228
Summary of the method: as §1

NCI-H23 = tested on: NCI-H23
Summary of the method: as §1

NCI-H441 = tested on: NCI-H441
Summary of the method: as §1

NCI-H650 = tested on: NCI-H650
Summary of the method: as §1

NCI-H727 = tested on: NCI-H727
Summary of the method: as §1

NCI-H838 = tested on: NCI-H838
Summary of the method: as §1

PC-3 [JPC-3] = tested on: PC-3 [JPC-3]
Summary of the method: as §1

SW 1573 = tested on: SW 1573
Summary of the method: as §1

SW 900 = tested on: SW 900
Summary of the method: as §1

UMC-11 = tested on: UMC-11
Summary of the method: as §1

Cc1csc(=NC2CCCCC2)n1/N=C/c1ccc(O)c(O)c1O [MIM1] + Cc1cc(Nc2cc(N3CCN(C)CC3)nc(Sc3ccc(NC(=O)C4CC4)cc3)n2)n[nH]1 [Tozasertib] (partner 0.1 µM)
relative viability (EPLC-272H; first compound 0.2 µM): 0.425 | relative viability (EPLC-272H; first compound 0.6325 µM): 0.226 | relative viability (EPLC-272H; first compound 2 µM): 0.219 | relative viability (EPLC-272H; first compound 6.325 µM): 0.372 | relative viability (EPLC-272H; first compound 20 µM): 0.124 | relative viability (H3255; first compound 0.2 µM): 0.526 | relative viability (H3255; first compound 0.6325 µM): 0.54 | relative viability (H3255; first compound 2 µM): 0.601 | relative viability (H3255; first compound 6.325 µM): 0.537 | relative viability (H3255; first compound 20 µM): 0.277 | relative viability (HARA; first compound 0.2 µM): 0.101 | relative viability (HARA; first compound 2 µM): 0.0957 | relative viability (HARA; first compound 6.325 µM): 0.112 | relative viability (HARA; first compound 20 µM): 0.0634 | relative viability (LC-2-ad; first compound 0.2 µM): 0.546 | relative viability (LC-2-ad; first compound 0.6325 µM): 0.471 | relative viability (LC-2-ad; first compound 2 µM): 0.367 | relative viability (LC-2-ad; first compound 6.325 µM): 0.364 | relative viability (LC-2-ad; first compound 20 µM): 0.223 | relative viability (LOU-NH91; first compound 0.2 µM): 0.65 | relative viability (LOU-NH91; first compound 0.6325 µM): 0.657 | relative viability (LOU-NH91; first compound 2 µM): 0.51 | relative viability (LOU-NH91; first compound 6.325 µM): 0.581 | relative viability (LOU-NH91; first compound 20 µM): 0.225 | relative viability (NCI-H1650; first compound 0.2 µM): 0.529 | relative viability (NCI-H1650; first compound 0.6325 µM): 0.411 | relative viability (NCI-H1650; first compound 2 µM): 0.282 | relative viability (NCI-H1650; first compound 6.325 µM): 0.322 | relative viability (NCI-H1650; first compound 20 µM): 0.133 | relative viability (NCI-H1651; first compound 0.2 µM): 0.601 | relative viability (NCI-H1651; first compound 0.6325 µM): 0.689 | relative viability (NCI-H1651; first compound 2 µM): 0.565 | relative viability (NCI-H1651; first compound 6.325 µM): 0.607 | relative viability (NCI-H1651; first compound 20 µM): 0.503 | relative viability (NCI-H1975; first compound 0.2 µM): 0.643 | relative viability (NCI-H1975; first compound 0.6325 µM): 0.807 | relative viability (NCI-H1975; first compound 2 µM): 0.699 | relative viability (NCI-H1975; first compound 6.325 µM): 0.338 | relative viability (NCI-H1975; first compound 20 µM): 0.254 | relative viability (NCI-H2009; first compound 0.2 µM): 0.754 | relative viability (NCI-H2009; first compound 0.6325 µM): 0.701 | relative viability (NCI-H2009; first compound 2 µM): 0.859 | relative viability (NCI-H2009; first compound 6.325 µM): 0.622 | relative viability (NCI-H2009; first compound 20 µM): 0.725 | relative viability (NCI-H2023; first compound 0.2 µM): 0.32 | relative viability (NCI-H2023; first compound 0.6325 µM): 0.345 | relative viability (NCI-H2023; first compound 2 µM): 0.3 | relative viability (NCI-H2023; first compound 6.325 µM): 0.237 | relative viability (NCI-H2023; first compound 20 µM): 0.109 | relative viability (NCI-H2085; first compound 0.2 µM): 0.781 | relative viability (NCI-H2085; first compound 0.6325 µM): 0.755 | relative viability (NCI-H2085; first compound 2 µM): 0.763 | relative viability (NCI-H2085; first compound 6.325 µM): 0.598 | relative viability (NCI-H2085; first compound 20 µM): 0.533 | relative viability (NCI-H2087; first compound 0.2 µM): 0.26 | relative viability (NCI-H2087; first compound 0.6325 µM): 0.284 | relative viability (NCI-H2087; first compound 2 µM): 0.249 | relative viability (NCI-H2087; first compound 6.325 µM): 0.22 | relative viability (NCI-H2087; first compound 20 µM): 0.2 | relative viability (NCI-H2170; first compound 0.2 µM): 0.706 | relative viability (NCI-H2170; first compound 0.6325 µM): 0.721 | relative viability (NCI-H2170; first compound 2 µM): 0.62 | relative viability (NCI-H2170; first compound 6.325 µM): 0.478 | relative viability (NCI-H2170; first compound 20 µM): 0.206 | relative viability (NCI-H2228; first compound 0.2 µM): 0.257 | relative viability (NCI-H2228; first compound 0.6325 µM): 0.284 | relative viability (NCI-H2228; first compound 2 µM): 0.234 | relative viability (NCI-H2228; first compound 6.325 µM): 0.203 | relative viability (NCI-H2228; first compound 20 µM): 0.123 | relative viability (NCI-H23; first compound 0.2 µM): 0.398 | relative viability (NCI-H23; first compound 2 µM): 0.325 | relative viability (NCI-H23; first compound 6.325 µM): 0.175 | relative viability (NCI-H23; first compound 20 µM): 0.15 | relative viability (NCI-H441; first compound 0.2 µM): 0.675 | relative viability (NCI-H441; first compound 2 µM): 0.599 | relative viability (NCI-H441; first compound 6.325 µM): 0.376 | relative viability (NCI-H441; first compound 20 µM): 0.312 | relative viability (NCI-H650; first compound 0.2 µM): 0.774 | relative viability (NCI-H650; first compound 0.6325 µM): 0.711 | relative viability (NCI-H650; first compound 2 µM): 0.748 | relative viability (NCI-H650; first compound 6.325 µM): 0.69 | relative viability (NCI-H650; first compound 20 µM): 0.244 | relative viability (NCI-H727; first compound 0.2 µM): 0.513 | relative viability (NCI-H727; first compound 0.6325 µM): 0.536 | relative viability (NCI-H727; first compound 2 µM): 0.592 | relative viability (NCI-H727; first compound 6.325 µM): 0.574 | relative viability (NCI-H727; first compound 20 µM): 0.506 | relative viability (NCI-H838; first compound 0.2 µM): 0.292 | relative viability (NCI-H838; first compound 0.6325 µM): 0.307 | relative viability (NCI-H838; first compound 2 µM): 0.249 | relative viability (NCI-H838; first compound 6.325 µM): 0.236 | relative viability (NCI-H838; first compound 20 µM): 0.236 | relative viability (PC-3 [JPC-3]; first compound 0.2 µM): 0.912 | relative viability (PC-3 [JPC-3]; first compound 0.6325 µM): 0.86 | relative viability (PC-3 [JPC-3]; first compound 2 µM): 0.849 | relative viability (PC-3 [JPC-3]; first compound 6.325 µM): 0.694 | relative viability (PC-3 [JPC-3]; first compound 20 µM): 0.574 | relative viability (SW 1573; first compound 0.2 µM): 0.21 | relative viability (SW 1573; first compound 0.6325 µM): 0.197 | relative viability (SW 1573; first compound 2 µM): 0.257 | relative viability (SW 1573; first compound 6.325 µM): 0.127 | relative viability (SW 1573; first compound 20 µM): 0.128 | relative viability (SW 900; first compound 0.2 µM): 0.657 | relative viability (SW 900; first compound 0.6325 µM): 0.722 | relative viability (SW 900; first compound 2 µM): 0.495 | relative viability (SW 900; first compound 6.325 µM): 0.528 | relative viability (SW 900; first compound 20 µM): 0.183 | relative viability (UMC-11; first compound 0.2 µM): 0.197 | relative viability (UMC-11; first compound 2 µM): 0.196 | relative viability (UMC-11; first compound 6.325 µM): 0.207 | relative viability (UMC-11; first compound 20 µM): 0.187
